Results as given in paper PMC3684770 (Free Radical Biology & Medicine, 2013).
Where “and” joins values, the source holds several entries; their conditions need not be identical. Equal values may be shown once. Where a name gives a salt, the structure may show the parent alone.

Key:
[1] = tested on: 1321N1 astrocyte cell line; test: 1321N1 oxidative stress assay (serum withdrawal, DCF); conditions: for Emax / IC50: Homo sapiens; for Emax: 1321-N1, 24 h, read-out: 1321N1 oxidative stress assay Max reduction; for IC50: 1321-N1, read-out: 1321N1 oxidative stress assay IC50; for 1321N1 oxidative stress assay Toxic dose: minimum dose at which toxicity was observed
Protocol: (§2) Media were then replaced with serum-free, phenol-free media for 5 h.

NSC34 cells = test: NSC34 oxidative stress assay (serum withdrawal, DCF); conditions: for Emax: NSC-34, 24 h, read-out: NSC34 oxidative stress assay Max reduction; for NSC34 oxidative stress assay Toxic dose: minimum dose at which toxicity was observed
Protocol: as §2

[2] = tested on: HO-1 and NQO1 gene expression; test: Q-RTPCR of Nrf2-regulated genes in primary mouse astrocytes; type: cell-based; conditions: 24-h treatment at EC50 and EC90
Protocol: (§1) Nrf2 Target gene expression was determined using Q-RTPCR as described previously using the following primers: Ho-1 forward primer, cac ttc gtc aga ggc ctg cta; Ho-1 reverse primer, gcg gtg tct ggg atg agc ta; Nqo1 forward primer, cgc ctg agc cca gat att gt; Nqo1 reverse primer, act gca atg gga act gaa ata tca; GAPDH forward, gaa acc tgc caa gta tga tga cat; GAPDH reverse, ggt cct cag tgt agc cca aga t.

heme oxygenase 1 (HO-1) = test: HO-1 immunofluorescence staining in primary mouse astrocytes; type: cell-based; conditions: EC90 concentration, 24 h
P-glycoprotein = tested on: P-glycoprotein; design: method as in PMID 19093450; conditions: cited from earlier work
NQO1 protein expression = test: Western blot NQO1 in wild-type MEFs; type: cell-based, mouse; conditions: EC90 concentration, 24 h
Protocol: Cells were isolated and lysed in a RIPA buffer containing protease inhibitor cocktail (Roche), quantified for protein content by Bradford assay, and loaded 30 μg per sample. Samples were run on a 12.5% acrylamide gel under reducing conditions with a prestained marker and transferred to polyvinylidene fluoride membrane and blocked in 5% milk. Mouse anti-alpha-tubulin, clone DM1A (Sigma), and rabbit anti-NQO1 (kind gift from Prof. John Hayes, University of Dundee) were used at 1 in 1000 dilution in Tris-buffered saline containing Tween. Polyclonal goat anti-mouse (Abcam-Ab97040) and polyclonal goat anti-rabbit (Dako Cat. No. P0448), horseradish peroxidase-conjugated secondary antibodies were used for detection of relevant primary antibodies. Bands were visualised by enhanced chemiluminescence reagents (Geneflow EZ-ECL kit). Relative band intensities were captured, using subsaturation, and quantified using a Gbox iChem XT digital imaging system (Syngene).

[3] = tested on: HO-1 and NQO1 gene expression; test: Q-RTPCR of Nrf2-regulated genes in C6 cells; type: cell-based, rat; conditions: C6, 24-h treatment at EC50 and EC90
Protocol: as §1

primary mouse astrocytes = test: Total glutathione assay in primary mouse astrocytes and conditioned media; type: cell-based; conditions: 24-h pretreatment
Protocol: Primary astrocytes were grown to confluency in 24-well plates and then treated with drug (or 0.05% DMSO vehicle) in phenol red-free DMEM containing 10% FBS and penicillin/streptomycin for 24 h. Conditioned medium was collected and astrocytes were then washed in ice-cold PBS before addition of 250 μl/well of sulphosalicylic acid (SSA, 5% (w/v)). Plates were frozen at −80 °C and thawed at 37 °C, twice, and then incubated at 4 °C for 15 min. The supernatant was removed and centrifuged at 13,000 g for 5 min. Conditioned medium samples were incubated at 80 °C for 15 min and then centrifuged at 13,000 g for 5 min. Samples were either used immediately or stored at −80 °C. Reaction mixture (150 μl/well; 100 mM potassium phosphate buffer, pH 7.0, 1 mM EDTA, 6 Units/ml glutathione reductase, 1.5 mg/ml 5,5′-dithiobis(2-nitrobenzoic acid)) was added to 10 μl of each sample or glutathione standard (0–50 μM reduced glutathione) in a 96-well plate and incubated at room temperature for 5 min before addition of 50 μl/well of NADPH solution (0.16 mg/ml). A412nm was measured every minute for 15 min and the total glutathione concentration (GSH + GSSG) was calculated from initial rates. Samples were tested in triplicate.

[4] = tested on: NQO1 and HO-1 gene expression; test: Q-RTPCR in astrocytes from SOD1G93A transgenic mice; type: cell-based, mouse; conditions: G93A SOD1 astrocytes, 24-h pretreatment at EC90 (andrographolide also EC50)
Protocol: as §1

[5] = tested on: primary mouse motor neurons; test: Primary motor neuron/astrocyte coculture, menadione stress; type: cell-based; conditions: 24-h pretreatment, 6 h 10 µM menadione
Protocol: Mouse glial cultures were established based on published methods [[68,69]]. Primary spinal cord motor neurons (MNs) were cultured from E13.5 C57Bl/6 mouse embryos as described previously. Cocultures were allowed to establish for 2 weeks and neuroprotection assays performed. Cocultures were exposed to drug or vehicle for 24 h followed by a 6-h treatment with menadione (10 μM) to induce oxidative stress or with no stress to determine the effect of drug alone. Following stress treatment, coverslips were washed 3 times, fixed, and permeabilised, and MNs immunostained with SMI32 (Covance, UK). Total MNs were counted by fluorescence microscopy in a 1.5 cm^2 area per coverslip. A minimum of three repeats in triplicate were performed per condition. Both vehicle and drug treatments were counted with and without stress treatment, and results were analysed by two-way ANOVA using Bonferroni post tests.

C6 astrocyte cell line = test: C6 oxidative stress assay (serum withdrawal, DCF); conditions: for Emax / IC50: Rattus norvegicus, Astrocyte; for Emax: 24 h, read-out: C6 oxidative stress assay Max reduction; for IC50: read-out: C6 oxidative stress assay IC50; for C6 oxidative stress assay Toxic dose: minimum dose at which toxicity was observed
Protocol: as §2

Nrf2-ARE pathway [6] = test: ARE reporter assay in CHO 4xARE-TK-GFP cells (Spectrum library hits); conditions: for Toxic dose: lowest dose at which a reduction in GFP fluorescence was observed
D1 receptors = conditions: read-out: Ki D1 receptors; cited from earlier work
Nrf2-ARE pathway [7] = test: ARE reporter assay in C6 astrocyte cell line (C6-ARE); type: cell-based, rat; conditions: C6-ARE, highest dose
From the text: Chinese hamster ovary (CHO), NSC34 mouse motor neuronal cells […] The ARE-TK-GFP and TK-GFP reporter constructs were a kind gift from William E. Fahl McArdle Laboratory for Cancer Research, University of Wisconsin. […] The NSC34 cell lines stably expressing G93A mutant hSOD1 have been described previously. […] Mouse embryonic fibroblasts were generated and maintained as described previously.

D4 receptors = conditions: read-out: Ki D4 receptors; cited from earlier work
[8] = cited from earlier work
[9] = mouse ref 73; cited from earlier work
[10] = Pharmacokinetic analysis in C57Bl/6 mice; type: in vivo, mouse; conditions: 1 mg/kg
Protocol: Pharmacokinetic studies were performed by Pharmidex (London, UK). […] All concentrations were calculated with reference to the relevant standard curve. An extraction buffer (EB) solution of acetonitrile with 0.1% formic acid (Fisher Scientific, HPLC grade) and 500 ng/ml of propranolol as the internal standard (IS) was used for in all extraction protocols.

[11] = tested on: primary fibroblasts from ALS patients; test: Oxidative stress assay in ALS patient and control fibroblasts; type: cell-based, human; conditions: 3.7 or 0.41 µM, 24 h
Protocol: Fibroblasts were obtained from human controls (n=3) and ALS patients with I113T SOD1 mutations (n=3) and sporadic ALS patients (n=2). […] The cells were incubated at 37 °C/5% CO2 overnight. The following day the media were removed and the cells were washed with 200 µl 1XP BS. Phenol red-free DMEM/F12 media (Sigma D6434) was added in the presence of 10% serum/2 mM Gln (++), 10% serum/0 mM Gln (+−), or 0% serum/0 mM Gln (−−). Cells were incubated at 37 °C/5% CO2 for 5 h.
Carboxy-H2DCFDA fluorescence was normalised to live cell number (total EthD1 signal after freeze/thaw – EthD1 signal after assay) to compare between the different cell lines. Data were analysed by one-way ANOVA with Bonferroni post tests using GraphPad Prism
DMEM/F12 (50 µl) media were added in the presence of 10% serum/0 mM Gln (+−) and the cells were incubated at 37 °C and 5% CO2 for 5 h.
The data were tested for normality and analysed by one-way ANOVA using GraphPad Prism.

C=C1CC[C@@H]2[C@](C)(CO)[C@H](O)CC[C@@]2(C)[C@@H]1C/C=C1/C(=O)OC[C@H]1O [Andrographolide]
Emax [1]: 35% | IC50 [1]: 501 nM | 1321N1 oxidative stress assay Toxic dose [1]: 10 µM | Emax (NSC34 cells; Mus musculus): 0% | NSC34 oxidative stress assay Toxic dose (NSC34 cells): 10 µM | HO-1 and NQO1 gene expression [2]: statistically significant changes in gene expression | HO-1 staining index (heme oxygenase 1 (HO-1)): significant increase in HO-1 staining | P-glycoprotein substrate (P-glycoprotein): substrate | NQO1 protein expression, fold over vehicle (NQO1 protein expression): 3.6 fold and > 3 fold | HO-1 and NQO1 gene expression [3]: statistically significant changes in gene expression | total glutathione levels (primary mouse astrocytes): enhance glutathione production | transcripts for NQO1 and HO1 [4]: significant increase in transcripts | motor neuron numbers after menadione [5]: significant neuroprotective effects | Emax (C6 astrocyte cell line): 69% | IC50 (C6 astrocyte cell line): 192 nM | C6 oxidative stress assay Toxic dose (C6 astrocyte cell line): 10 µM | EC50 (Nrf2-ARE pathway [6]; Cricetulus griseus): 740 nM | maximal fold induction (Nrf2-ARE pathway [6]; Cricetulus griseus, CHO, 24 h, read-out: Fold GFP induction): 3.61 | Toxic dose (Nrf2-ARE pathway [6]): 100 µM

CN1CCc2cccc3c2[C@H]1Cc1ccc(O)c(O)c1-3 [Apomorphine hydrochloride, reference compound]
Emax [1]: 79% | IC50 [1]: 1700 nM | 1321N1 oxidative stress assay Toxic dose [1]: None | Emax (NSC34 cells; Mus musculus): 25% | IC50 (NSC34 cells; Mus musculus, NSC-34, read-out: NSC34 oxidative stress assay IC50): 174 nM | NSC34 oxidative stress assay Toxic dose (NSC34 cells): 10 µM | Ki (D1 receptors): 370 nM | dose showing toxicity (Nrf2-ARE pathway [7]): 30 µM | Emax (C6 astrocyte cell line): 62% | IC50 (C6 astrocyte cell line): 1690 nM | C6 oxidative stress assay Toxic dose (C6 astrocyte cell line): None | EC50 (Nrf2-ARE pathway [6]; Cricetulus griseus): 25900 nM | Toxic dose (Nrf2-ARE pathway [6]): 100 µM | Ki (D4 receptors): 4.4 nM

CN1CCc2cccc3c2[C@H]1Cc1ccc(O)c(O)c1-3 [apomorphine]
fraction absorbed following subcutaneous dosing ([8]; humans ref 75): 1 | Tmax following subcutaneous dosing ([8]; humans ref 76): 8 to 16 min | plasma protein binding fraction (unbound) [9]: 0.222 | Kp ([10]; C57Bl/6, mouse, brain / plasma, intravenous, read-out: brain:plasma (Kp)): 2.1 | clearance ([10]; C57Bl/6, plasma, mouse, iv): 109 mL/min/kg | cell number compared to DMSO control [11]: no effect on cell number
